The record followed here is patent publication US20240299395A1, “COMBINATION THERAPIES COMPRISING WEE1 INHIBITORS AND DNA DAMAGE RESPONSE (DDR) INHIBITORS” (Recurium IP Holdings, LLC, priority 2021, published 2024).

What all share (type): cell-based
Assay [1] concerns HL-60 (AML) cell line. The experiment in a line: CellTiter-Glo (CTG) cell viability, HL-60. Conditions: for single agent activity (figure legend): HL-60, FIGS. 9-11, 72 h. How it is done: (§1) 20,000 MDA-MB-231 cells were incubated in a 96 well plate as a triplicate with 500 nM of ZN-c3 and 10 nM of CHK inhibitor or 700 nM of ATR inhibitor as a single agent or the combination of both for 72 h. 20,000 H23 cells were incubated in a 96 well plate as a triplicate with 150 nM of ZN-c3 and 5 nM of CHK inhibitor or 500 nM of ATR inhibitor as a single agent or the combination of both for 72 h. 10,000 MV4-11 cells were incubated in a 96 well plate as a triplicate with 400 nM of ZN-c3 and 2 nM of CHK inhibitor or 2000 nM of ATM inhibitor as a single agent or the combination of both for 72 h. 20,000 THP-1 cells were incubated in a 96 well plate as a triplicate with 600 nM of ZN-c3 and 4 nM of CHK inhibitor or 1000 nM of ATR inhibitor as a single agent or the combination of both for 72 h. 10,000 HL-60 cells were incubated in a 96 well plate as a triplicate with 750 nM of ZN-c3 and 15 nM of CHK inhibitor or 2000 nM of ATM inhibitor as a single agent or the combination of both for 72 h. 10,000 LNCaP cells were incubated in a 96 well plate as a triplicate with 500 nM of ZN-c3 and 10 nM of CHK inhibitor or 1000 nM of ATM inhibitor as a single agent or the combination of both for 72 h. For each cell line, the cell viability was assessed using a CellTiter-Glo® (CTG) assay.
(§2) 10,000 MV4-11 cells were incubated in a 96 well plate as a triplicate with 2 nM of ZN-d5, 400 nM of ZN-c3 and 2 nM of CHK inhibitor or 2000 nM of ATM inhibitor or 150 nM of ATR inhibitor as a single, double or triple combination for 72 h. 20,000 THP-1 cells were incubated in a 96 well plate as a triplicate with 100 nM of ZN-d5, 600 nM of ZN-c3 and 4 nM of CHK inhibitor or 1000 nM of ATM inhibitor or 1000 nM of ATR inhibitor as a single, double or triple combination for 72 h. 10,000 HL-60 cells were incubated in a 96 well plate as a triplicate with 75 nM of ZN-d5, 750 nM of ZN-c3 and 15 nM of CHK inhibitor or 2000 nM of ATM inhibitor or 1000 nM of ATR inhibitor as a single, double or triple combination for 72 h. For each cell line, the cell viability was assessed using a CellTiter-Glo® (CTG) assay.
(In ATP-based viability assays light output follows the ATP content of the culture.)

The test system of assay [2] is THP-1 (AML) cell line. The experiment in a line: CellTiter-Glo (CTG) cell viability, THP-1. Conditions: for single agent activity (figure legend): THP-1, FIGS. 7-8, 72 h. How it is done: as §1, §2
Assay [3] relates to MV4-11 (AML) cell line. The experiment in a line: CellTiter-Glo (CTG) cell viability, MV4-11. Conditions: for single agent activity (figure legend): MV4-11, FIGS. 5-6, 72 h. How it is done: as §1, §2
Assay [4] has as its system LNCaP (Prostate) cell line. The experiment in a line: CellTiter-Glo (CTG) cell viability, LNCaP. Conditions: for single agent activity (figure legend): FIGS. 12-13, 72 h. On the procedure: as §1
The subject of assay [5] is MDA-MB-231 (TNBC) cell line. The experiment in a line: CellTiter-Glo (CTG) cell viability, MDA-MB-231. Conditions: for single agent activity (figure legend): MDA-MB-231, FIGS. 1-2, 72 h. How it is done:
as §1

Assay [6] has as its system H23 (NSCLC) cell line. Nature of the assay: CellTiter-Glo (CTG) cell viability, H23. Conditions: for single agent activity (figure legend): H23, FIGS. 3-4, 72 h. On the procedure: as §1
Where [7] appears, read: Table 4, 75 nM ZN-d5, 750 nM ZN-c3, 15 nM CHK inhibitor, 2000 nM ATM inhibitor, 1000 nM ATR inhibitor, single, double or triple combination, 72 h.
Setting [8] is: Table 4, 100 nM ZN-d5, 600 nM ZN-c3, 4 nM CHK inhibitor, 1000 nM ATM inhibitor, 1000 nM ATR inhibitor, single, double or triple combination, 72 h.
The mark [9] stands for this setting: Table 4, 2 nM ZN-d5, 400 nM ZN-c3, 2 nM CHK inhibitor, 2000 nM ATM inhibitor, 150 nM ATR inhibitor, single, double or triple combination, 72 h.
[10] abbreviates: Homo sapiens, HL-60, 72 h, Table 4, 75 nM ZN-d5, 750 nM ZN-c3, 15 nM CHK inhibitor, 2000 nM ATM inhibitor, 1000 nM ATR inhibitor, single, double or triple combination, 72 h, read-out: HL60 % Inhibition.
[11] abbreviates: Homo sapiens, THP-1, 72 h, Table 4, 100 nM ZN-d5, 600 nM ZN-c3, 4 nM CHK inhibitor, 1000 nM ATM inhibitor, 1000 nM ATR inhibitor, single, double or triple combination, 72 h.
Setting [12] is: Homo sapiens, MV4-11, 72 h, Table 4, 2 nM ZN-d5, 400 nM ZN-c3, 2 nM CHK inhibitor, 2000 nM ATM inhibitor, 150 nM ATR inhibitor, single, double or triple combination, 72 h.
The mark [13] stands for this setting: Table 1, 150 nM ZN-c3, 5 nM CHK inhibitor, single agent or combination, 72 h.
Setting [14] is: Table 1, 500 nM ZN-c3, 10 nM CHK inhibitor, single agent or combination, 72 h.

Like-named read-outs stand apart in the source and are kept apart here.

`CN(C)CCCOc1ccc(-c2ccc3ncc4c(c3c2)n(C2CCOCC2)c(=O)n4C)cn1` [ATMi, AZD0156]: the “single agent activity (figure legend)” value is given as “practically no activity” in assay [1], “single agent activity was observed” in assay [2], “single agent activity was observed” in assay [3] and “single agent activity was observed” in assay [4] (LNCaP). In addition, the “HL60 % Inhibition” value in assay [1] (Table 3, 750 nM ZN-c3, 2000 nM ATM inhibitor, single agent or combination, 72 h) was determined as 3%; in assay [1] (setting [7]), 2.95%. In addition, the “THP % Inhibition” value in assay [2] (setting [8]) came to 19.52%. The “MV4; 11 % Inhibition” value in assay [3] (Table 3, 400 nM ZN-c3, 2000 nM ATM inhibitor, single agent or combination, 72 h) turned out to be 18%; in assay [3] (setting [9]), 18.48%. Further, the “LNCaP % Inhibition” value in assay [4] (Table 3, 500 nM ZN-c3, 1000 nM ATM inhibitor, single agent or combination, 72 h) amounted to 14%.

What is called inhibition is the change of the read-out against control, counted positive when it falls. In the case of `C=CCn1c(=O)c2cnc(Nc3ccc(N4CCN(C)CC4)cc3)nc2n1-c1ccc2c(n1)[C@@](O)(CC)CC2` [ZN-c3], the “single agent activity (figure legend)” value in assay [1], in assay [2], in assay [3], in assay [4] (LNCaP), in assay [5] and in assay [6] was “single agent activity was observed” throughout. For the same compound, the inhibition at 0.75 µM in assay [1] (Homo sapiens, HL-60, 72 h, Table 1, 750 nM ZN-c3, 15 nM CHK inhibitor, single agent or combination, 72 h, read-out: HL60 % Inhibition) came out at 25%; in assay [1] (Homo sapiens, HL-60, 72 h, Table 3, 750 nM ZN-c3, 2000 nM ATM inhibitor, single agent or combination, 72 h, read-out: HL60 % Inhibition), 25%; in assay [1] (setting [10]) it was 25.5%. Also, the inhibition at 0.6 µM was 18% in assay [2] (Homo sapiens, THP-1, 72 h, Table 1, 600 nM ZN-c3, 4 nM CHK inhibitor, single agent or combination, 72 h); 18% in assay [2] (Homo sapiens, THP-1, 72 h, Table 2, 600 nM ZN-c3, 1000 nM ATR inhibitor, single agent or combination, 72 h); 18.1% in assay [2] (setting [11]). The inhibition at 0.4 µM in assay [3] (Homo sapiens, MV4-11, 72 h, Table 1, 400 nM ZN-c3, 2 nM CHK inhibitor, single agent or combination, 72 h) is 49%; in assay [3] (Homo sapiens, MV4-11, 72 h, Table 3, 400 nM ZN-c3, 2000 nM ATM inhibitor, single agent or combination, 72 h) it was 49%; in assay [3] (setting [12]), 49.2%. Also, the inhibition at 0.5 µM in assay [4] (Homo sapiens, LNCaP, Table 1, 500 nM ZN-c3, 10 nM CHK inhibitor, single agent or combination, 72 h) was 24%; in assay [5] (Homo sapiens, MDA-MB-231, Table 1, 500 nM ZN-c3, 10 nM CHK inhibitor, single agent or combination, 72 h) it was 35%. In assay [6] (setting [13]), the inhibition at 0.15 µM was 22%.

`CNCc1ccc(-c2cc(-c3nc(-c4ccc(S(=O)(=O)C(C)C)cc4)cnc3N)on2)cc1` [ATRi, Berzosertib]: the “single agent activity (figure legend)” value in assay [1], in assay [5] and in assay [6] was “single agent activity was observed” throughout. For the same compound, the inhibition at 1 µM in assay [1] (Homo sapiens, HL-60, 72 h, Table 2, 750 nM ZN-c3, ATR inhibitor (1000 nM), single agent or combination, 72 h, read-out: HL60 % Inhibition) was 15%. In addition, the “HL60 % Inhibition” value in assay [1] (setting [7]) is on record as 15.91%. The “THP % Inhibition” value in assay [2] (Table 2, 600 nM ZN-c3, 1000 nM ATR inhibitor, single agent or combination, 72 h) is listed as 37%; in assay [2] (setting [8]) it was 36.93%. Also, the “MV4; 11 % Inhibition” value in assay [3] (setting [9]) was found to be 13.99%. For the same compound, the “MDA-MB-231 % Inhibition” value in assay [5] (Table 2, 500 nM ZN-c3, 700 nM ATR inhibitor, single agent or combination, 72 h) was 33%. Besides, the “H23 % Inhibition” value in assay [6] (Table 2, 150 nM ZN-c3, 500 nM ATR inhibitor, single agent or combination, 72 h) came to 35%.

As to `CC1(C)CCC(CN2CCN(c3ccc(C(=O)NS(=O)(=O)c4ccc(NC[C@H]5CC[C@](C)(O)CC5)c([N+](=O)[O-])c4)c(Oc4cnc5[nH]ccc5c4)c3)CC2)=C(C23CC(C(F)F)(C2)C3)C1` [ZN-d5, 2-((1H-pyrrolo[2,3-b]pyridin-5-yl)oxy)-4-(4-((2-(3-(difluoromethyl)bicyclo[1.1.1]pentan-1-yl)-4,4-dimethylcyclohex-1-en-1-yl)methyl)piperazin-1-yl)-N-((4-((((1r,4r)-4-hydroxy-4-methylcyclohexyl)methyl)amino)-3-nitrophenyl)sulfonyl)benzamide], the inhibition at 0.075 µM in assay [1] (setting [10]) stood at 37.6%. Besides, the inhibition at 0.1 µM in assay [2] (setting [11]) was 2.6%. The inhibition at 0.002 µM in assay [3] (setting [12]) is 8.44%.

`COc1cccc(OCCCN)c1-c1cc(Nc2cnc(C#N)cn2)n[nH]1` [CHKi, Prexasertib]: the “single agent activity (figure legend)” value in assay [1] was “no activity”; in assay [3], “no activity”; in assay [4] (LNCaP) it was “single agent activity was observed”; in assay [5], “single agent activity was observed”; in assay [6], “practically no activity”. Moreover, the “HL60 % Inhibition” value in assay [1] (Table 1, 750 nM ZN-c3, 15 nM CHK inhibitor, single agent or combination, 72 h) is reported as 0%; in assay [1] (setting [7]), 0%. Moreover, the “THP % Inhibition” value came to 32% in assay [2] (Table 1, 600 nM ZN-c3, 4 nM CHK inhibitor, single agent or combination, 72 h) and 32.29% in assay [2] (setting [8]). Besides, the “MV4; 11 % Inhibition” value in assay [3] (Table 1, 400 nM ZN-c3, 2 nM CHK inhibitor, single agent or combination, 72 h) was 0%; in assay [3] (setting [9]), 0%. The “LNCaP % Inhibition” value in assay [4] (setting [14]) was determined as 14%. The “MDA-MB-231 % Inhibition” value in assay [5] (setting [14]) came out at 26%. In assay [6] (setting [13]), the “H23 % Inhibition” value is given as 1%.
